In patent publication US8084018B2, “Methods for imaging dopamine transporter level” (Alseres Pharmaceuticals, Inc., priority 2007, dated 2011):
Values joined by “and” are separate entries in the source; they are usually repeats but may differ in a detail not shown here. Equal entries are not always repeated.

Biological target: T1, dopamine transporter (Homo sapiens, UniProt Q01959)
T1 construct: dynamic SPECT in Parkinson's subjects and similarly aged healthy control subjects; from tissue; host or cells: striatum (caudate and putamen) of living subjects, imaged in vivo
Assay: 123I Altropane dynamic SPECT imaging of striatal dopamine transporter in Parkinson's disease and healthy control subjects
Format: in vivo
Settings: for Mean % test/retest difference: 15 PD subjects; for Total striatal binding ratio, Ratio (3-6): individual PD scans (paired test/retest), mean of scans 3-6, about 30 min from about 15 min post injection; for Peak Striatal:Occipital Ratio (peak SBR): single scan with highest uptake, 8 mCi i.v.
Excerpt: The following example summarizes single photon emission computed tomographic (SPECT) image acquisition, analysis methods and results for Parkinson's disease research participants and healthy controls participating in an ^123I Altropane SPECT imaging study. The experiment is an open label study evaluating time-activity curves and striatal dopamine transporter occupancy over the first hour post injection of ^123I Altropane using temporally well-resolved dynamic SPECT in Parkinson's subjects and similarly aged healthy control subjects. In addition, for the PD subjects, a second injection and scan is performed on each subject on a separate test days to evaluate the test/retest reproducibility data for both visual and quantitative analyses.
Fifteen idiopathic Parkinson's disease subjects are recruited through local advertising and word-of-mouth for enrollment in the study. Imaging is performed at Molecular NeuroImaging, LLC in New Haven, Conn., USA. ^123I Altropane is studied under the auspices of a physician-sponsored IND # 76,024, Dr. J. Seibyl physician sponsor using test article provided by MDS Nordion, Inc (Vancouver, BC, Canada). All subjects are provided informed consent prior to any study procedures. All fifteen subjects completed two separate injection and SPECT scan sessions with approximately 296 mBq (8 mCi) of ^123I Altropane. Subjects undergo motor ratings using the Unified Parkinson's Disease Rating Scale (UPDRS) following overnight period without anti-Parkinson medication administered by a movement disorder specialist. No PD subjects are terminated prior to achieving the study endpoint.
Twelve healthy control subjects are recruited for participation in a single scan session with ^123I Altropane using the identical SPECT image acquisition protocol as the PD subjects. Healthy subjects are evaluated by a movement disorder specialist to confirm the absence of neurologic illness.
SPECT scans are acquired for 60 minutes following the intravenous injection with 296 mBq (8.0 mCi) of ^123I Altropane. A series of dynamic SPECT scans are obtained as five scans at 6 minutes per acquisition followed by three scans at 10 minutes per acquisition. The subject remain in the camera for the duration of the acquisition. Each SPECT study is acquired on a Philips PRISM 3000XP triple-headed SPECT camera (Cleveland, Ohio, USA) fitted with fan-beam collimators. Each head rotates 360 degrees, sampling every 3 degrees for a total of 120 raw projection images per head. Projection data were collected in a 128×128 matrix within a symmetric energy window centered at 159 kEv (+/−10%).
Data are re-constructed using filtered back projection and a simple ramp filter followed by a post hoc (3-D) standardized low pass filter. Attenuation correction was performed applying a Chang 0 correction and a mu of 0.11 cm^−1 using a standard or custom automated software package. Regions of interest (ROIs) are placed in the 3-head data with individual ROI sampling of the left and right caudate and putamen and an occipital background region. The ROIs were then applied to all images in the injection session (total of 24=8 time points×3 head conditions (1, 1&2, 1&2&3). To check for head movement within each scan session, five external skin fiducial markers containing 1 μCi of ^123I were place along the canthomeatal line (2 right side, 3 left side) prior to each SPECT scan. Total counts within the ROI, total volume, and count density (counts/voxel) were extracted from each scan and logged in a data spreadsheet for determination of striatal uptake ratios (SBR) defined as the density of counts (counts per voxel per minute) in the striatal region divided by the density of counts in the occipital background region. The mean striatal SBR scores were calculated as the mean of the left and right caudate and putamen SBR scores. Since sampling in striatal subregions used the identical size ROI, there was equal contribution from left and right caudate and putamen to the mean SBR. […]

T1 sequence (Q01959 whole entry): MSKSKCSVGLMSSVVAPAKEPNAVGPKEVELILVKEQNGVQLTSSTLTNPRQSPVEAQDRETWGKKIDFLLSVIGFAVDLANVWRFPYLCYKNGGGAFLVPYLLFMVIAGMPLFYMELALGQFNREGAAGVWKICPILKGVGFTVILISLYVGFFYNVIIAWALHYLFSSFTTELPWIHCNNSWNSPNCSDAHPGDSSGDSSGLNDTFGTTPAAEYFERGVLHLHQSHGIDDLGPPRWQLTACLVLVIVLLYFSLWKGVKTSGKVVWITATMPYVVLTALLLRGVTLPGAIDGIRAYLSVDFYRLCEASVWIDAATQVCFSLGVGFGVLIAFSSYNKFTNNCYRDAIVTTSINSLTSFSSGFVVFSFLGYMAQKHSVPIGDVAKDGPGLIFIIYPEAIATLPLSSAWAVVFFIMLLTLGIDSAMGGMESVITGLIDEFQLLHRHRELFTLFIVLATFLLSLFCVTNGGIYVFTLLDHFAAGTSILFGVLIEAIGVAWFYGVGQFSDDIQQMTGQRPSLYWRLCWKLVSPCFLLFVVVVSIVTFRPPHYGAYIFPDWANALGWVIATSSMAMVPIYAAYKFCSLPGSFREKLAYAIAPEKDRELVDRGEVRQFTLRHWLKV

COC(=O)C1C(c2ccc(F)cc2)CC2CCC1N2C/C=C/I (stereo not drawn) [123I Altropane, 2β-carbomethoxy-3β-(4′-flurophenyl)-N-(3-iodo-E-allyl) nortropane]
Mean % test/retest difference (1 head): 4.94% | Mean % test/retest difference (2 heads): 5.11% | Mean % test/retest difference (3 heads): 5.14% | time post injection of relative stability of binding ratios (a PD and a control subject, FIG. 3): about 15 minutes | time post injection by which washout rates from striatum and occipital background are similar (stable striatal binding ratio) (all subjects): 20 to 30 min | time of peak striatal count densities post-injection (controls and PD subjects, bolus injection): 10 min | Total striatal binding ratio, Ratio (3-6) (1 head): 1.29 (4×) and 1.23 and 1.30 (2×) and 1.26 (3×) and 1.25 (3×) and 1.22 (2×) and 1.37 (2×) and 1.40 and 1.48 and 1.20 (2×) and 1.16 and 1.32 and 1.35 and 1.21 (2×) and 1.12 and 1.28 and 1.17 and 1.24 | Total striatal binding ratio, Ratio (3-6) (2 heads): 1.29 and 1.27 (3×) and 1.35 and 1.37 and 1.31 and 1.32 (4×) and 1.30 and 1.36 and 1.43 and 1.47 and 1.60 and 1.25 and 1.21 and 1.19 and 1.38 (2×) and 1.40 and 1.24 (2×) and 1.12 and 1.26 and 1.33 (2×) and 1.20 and 1.45 | Total striatal binding ratio, Ratio (3-6) (3 heads): 1.32 and 1.30 (2×) and 1.39 and 1.41 and 1.33 and 1.36 (2×) and 1.35 (2×) and 1.38 and 1.45 and 1.56 and 1.70 and 1.37 (2×) and 1.28 and 1.23 and 1.20 and 1.42 (2×) and 1.44 and 1.26 and 1.15 and 1.29 and 1.31 and 1.22 and 1.50 and 1.40 and 1.27 | Peak Striatal:Occipital Ratio (peak SBR) (individual PD subjects, 1 head reconstruction): 1.29 (2×) and 1.24 (2×) and 1.22 and 1.35 and 1.41 (2×) and 1.52 and 1.43 and 1.26 (2×) and 1.32 and 1.33 (2×) | Peak Striatal:Occipital Ratio (peak SBR) (individual PD subjects, 2 head reconstruction): 1.28 (2×) and 1.27 (2×) and 1.25 and 1.41 and 1.46 and 1.66 and 1.53 and 1.26 and 1.36 and 1.32 and 1.43 and 1.37 and 1.39 | Peak Striatal:Occipital Ratio (peak SBR) (individual PD subjects, 3 head reconstruction): 1.30 (2×) and 1.25 and 1.44 (2×) and 1.74 and 1.60 and 1.33 and 1.34 and 1.45 (2×) and 1.35 and 1.39 and 1.28 and 1.43 | Peak Striatal:Occipital Ratio (peak SBR) (individual healthy controls, 1 head reconstruction): 1.49 and 1.57 and 1.79 and 1.47 and 1.56 and 1.63 and 1.64 and 1.86 and 1.52 and 1.50 and 1.66 and 1.51 | Peak Striatal:Occipital Ratio (peak SBR) (individual healthy controls, 2 head reconstruction): 1.66 and 1.67 and 1.95 and 1.62 and 1.68 and 1.79 and 1.77 and 2.10 and 1.59 and 1.55 and 1.84 and 1.61 | Peak Striatal:Occipital Ratio (peak SBR) (individual healthy controls, 3 head reconstruction): 1.81 (2×) and 1.79 and 2.06 and 1.69 and 1.90 and 1.93 and 2.30 and 1.71 and 1.68 and 1.86 and 1.77 | mean SBR (peak Striatal:Occipital Ratio) (mean of 12 healthy controls, 1 head): 1.60 | mean SBR (peak Striatal:Occipital Ratio) (mean of 12 healthy controls, 2 head): 1.74 | mean SBR (peak Striatal:Occipital Ratio) (mean of 12 healthy controls, 3 head): 1.86 | mean SBR (peak Striatal:Occipital Ratio) (mean of 15 PD subjects, 1 head): 1.33 | mean SBR (peak Striatal:Occipital Ratio) (mean of 15 PD subjects, 2 head): 1.37 | mean SBR (peak Striatal:Occipital Ratio) (mean of 15 PD subjects, 3 head): 1.41 | elimination from brain (most subjects, striatal and occipital regions): rapid elimination | time of peak SBR post injection (one and two head scenarios): ≥ 15 min
